Source: paper PMC10442743 (Dalton Transactions (Cambridge, England : 2003), 2023)
Read-outs that look alike come from different tables or passages of the source.

Legend:
[1] = n-octanol/water; ESI ref 13; cited from earlier work
MDA-MB-231 [2] = assay: MTT cytotoxicity assay, MDA-MB-231 cells; format: cell-based, human; conditions: MTT
Description: (§1) The cytotoxicity of 1–11CA was assessed against human breast cancer MCF-7 and MDA-MB-231 cells, and non-tumorigenic adherent mouse fibroblast connective tissue L929 cells using the MTT assay after 24 and 72 h (Tables S5 ^† and Table 1, respectively).
(§2) Then, necessary dilutions were made using the supplement DMEM, to prepare the range of tested concentrations. Since DMSO was used to solubilize the compounds, a supplemented DMEM + DMSO (at the same percentage as in the sequential dilutions) was considered as a control in the 3-[4,5-dimetylthiazole-2-yl]-2,5-diphenyltetrazolium bromide (MTT) assay.
(§3) L929, MCF-7, and MDA-MB-231 cell lines were cultured in DMEM supplemented with 10% (v/v) FBS and 1% (v/v) of penicillin–streptomycin. The cells were incubated in a humidified chamber at 37 °C under saturated air with a 5% CO2 atmosphere. Cells were passed at 80%–90% of confluency with 0.25% (w/v) trypsin and the cell culture media was changed every 2–3 days.
(§4) The compounds were tested on two breast cancer cell lines (MCF-7 and MDA-MB-231) and L929 fibroblasts, used as a reference for the safety evaluation according to ISO 10993-1:2009 “Biological evaluation of medical devices”. Cells were seeded on sterile 96-well plates at 50 000 cells per well (L929) and 20 000 cells per well (MCF-7 and MDA-MB-231) in supplemented DMEM medium (100 μL) for 24 h. The culture medium was removed and new media containing different concentrations of the compounds (0–1000 μM) was added to the wells (100 μL). Control cells were incubated under the same conditions in the absence of a compound. Cells were incubated for 24 and 72 h under the same conditions described above. Then, the medium was removed, and the cells were incubated with 3-(4,5-dimethylthiazol-2-yl)-2,5-diphenyltetrazolium bromide (MTT; 0.5 mg mL^−1) for 3 h. After this time, the medium was removed, and formazan crystals were solubilized with DMSO (100 μL per well). The absorbance in each well was read on a SynergyTM HT Multimode microplate reader (BioTek Instruments; Winooski, VT, USA) at 570 and 630 nm (for background correction), and the cell viability was calculated according to the following equation (eqn (1)):1 [drawing 3] where OD570(sample) and OD630(sample) are the optical densities of the solutions containing the compounds and OD570(control) and OD630(control) are controls without compound.
(§5) Each apoptosis value determination represents the mean ± standard deviation of 2 independent assays. The IC50 values were obtained using GraphPad Prism software and ANOVA (analysis of variance) was performed to determine the statistical difference between the IC50 values of different cell lines.

MCF-7 [3] = assay: MTT cytotoxicity assay, MCF-7 cells; format: cell-based, human; conditions: MTT
Description: as §1, §2, §3, §4, §5

L929 = assay: MTT cytotoxicity assay, L929 fibroblasts (and selectivity index); format: cell-based, mouse; conditions: for SI (selectivity index): IC50 L929 divided by average IC50 of the breast cancer cell lines; for IC50: MTT
Description: as §1, §2, §3, §4, §5

MDA-MB-231 [4] = assay: FITC Annexin V / 7-AAD apoptosis assay, MDA-MB-231; format: cell-based, human; conditions: 24 h at 24 h IC50 dose
Description: Apoptosis in MCF-7 and MDA-MB-231 cells was determined using FITC Annexin V with a 7-aminoactinomycin D (7-AAD) staining kit (BioLegend®, California, US) according to the manufacturer's instructions. […] Following incubation, the cells were washed with PBS twice and detached using 0.25% trypsin. After obtaining cell pellets by centrifugation (300g for 5 min), the cells were resuspended in 100 μL of PBS, followed by the addition of 10 μL of FITC Annexin V and 7-AAD, and then incubated for 15 min at room temperature while protected from light. After the incubation period, 200 μL of binding buffer was added to the cell suspension and the samples were analyzed immediately using a BD Accuri C6 flow cytometer with a minimum of 10 000 events. The assays were performed in quadruplicate and the results were analyzed with Accuri C6 analysis software.
Each cell viability result represents the mean ± standard deviation (SD) for n = 4 replicates in each of 3 independent assays, resulting in 12 independent values. Each apoptosis value determination represents the mean ± standard deviation of 2 independent assays. The IC50 values were obtained using GraphPad Prism software and ANOVA (analysis of variance) was performed to determine the statistical difference between the IC50 values of different cell lines.

[5] = Solubility in water (ICP-MS); conditions: 25 °C, limit of detection = 5 ppt
Description: sonication, the mixtures were stirred at 25 °C for 1 h. The saturated solutions were filtered
to remove any insoluble solids, dissolved in 0.5 mL of MilliQ water, and analyzed using
ICP-MS. Samples were submitted to acidic digestion with 2 mL of concentrated HNO3
min to heat to 100°C and keep at 100°C for 60 min. After the digestion, the sample
volumes were precisely adjusted to 5 mL with MilliQ water. Samples were further diluted
30 times with 2% HNO3 solution and their Ru content was analyzed by ICP-MS using
standard mode on NexIon 350 D ICP-MS instrument (PerkinElmer). Yttrium was added
as an internal standard at a concentration of 2 ppb to all the solution and Ru quantitation
was performed using an external calibration curve with standards in the 0.05-50 ppb

[6] = n-octanol/water partition coefficient (shake-flask, ICP-MS)
Description: The saturated solutions were filtered
(DigiPREP Jr. 15ml, 40 Pos, SCP Science). The digestion program was the following: 15
After the digestion, the sample
Samples were further diluted
range. All measurements were performed in triplicates.
lipophilicity of a compound. This assay was performed following the Shake-flask method
organic and aqueous phase. Aliquots of each phase were taken and analyzed separately
range. The partition coefficient was calculated as P!"=
respectively. All measurements were performed in triplicates.

[7] = Molar conductivity in acetonitrile; format: physicochemical; conditions: 1 mM in acetonitrile, 25 °C
Description: The molar conductivity (ΛM, reported as S·cm2·mol–1) of solutions of 11CA in acetonitrile (1 mM) were measured in a Radiometer Copenhagen CDM92 equipped with a conductivity cell CDC641T glass platinum electrode at room temperature (25 °C). The conductivity of the pure solvent was used as standard controls.
Table S3. Solubility in water at 25 °C, n-octanol/water partition coefficient and molar conductivity of the 11CA. * below limit of detection = 5 ppt.

[8] = Stability in solution (ESI-MS, NMR); conditions: 100% d6-DMSO, 1 mM, 72 h
Description: The stability of 11CA under pseudo-physiological conditions was assessed using ESI-MS and ^1H and ^31P NMR spectroscopy.
Stability studies were performed on 11CA over 72 h at 37 °C.
The stability of 11Cl was also monitored over
72 h via 1H and 31P NMR spectroscopy. The complex was fully dissolved in d6-DMSO,
diluted with D2O to reach 10% d6-DMSO in D2O (1 mM final concentration) and, finally,
the pD was adjusted to 7.2 ± 0.1 (neutral conditions). Furthermore, the stability of 11Cl
and 11BPh4 was also assessed in 100% d6-DMSO (1 mM final concentration) as a highly

MDA-MB-231 [9] = conditions: literature value ref 44; read-out: cytotoxicity (IC50) MDA-MB-231; cited from earlier work
MCF-7 [10] = conditions: literature value ref 43; read-out: cytotoxicity (IC50) MCF-7; cited from earlier work
[11] = 24 h exposure, read-out: IC50 (µM) (average ± standard deviation) 24 h MDA-MB-231
[12] = 72 h exposure, read-out: IC50 (μM) (average ± standard deviation) 72 h MDA-MB-231
[13] = 24 h exposure, read-out: IC50 (µM) (average ± standard deviation) 24 h MCF-7
[14] = 72 h exposure, read-out: IC50 (μM) (average ± standard deviation) 72 h MCF-7
[15] = 24 h exposure, read-out: IC50 (µM) (average ± standard deviation) 24 h L929
[16] = 72 h exposure, read-out: IC50 (μM) (average ± standard deviation) 72 h L929

| Structure (SMILES) | LogPow [1] | IC50 (MDA-MB-231 [2]; [11]) [µM] | IC50 (MDA-MB-231 [2]; [12]) [µM] | IC50 (MCF-7 [3]; [13]) [µM] | IC50 (MCF-7 [3]; [14]) [µM] | SI (selectivity index) (L929; 24 h) | IC50 (L929; [15]) [µM] | SI (selectivity index) (L929; 72 h) | IC50 (L929; [16]) [µM] | average apoptosis percentage, MDA-MB-231 cells (MDA-MB-231 [4]) [%] | Solubility (μM) [5] | Solubility (μg/mL) [5] | LogPow [6] | Conductivity (molar conductivity) [7] [S·cm2/mol] | stability in DMSO (NMR) [8] | IC50 (MDA-MB-231 [9]) [µM] | IC50 (MCF-7 [10]) [µM] |
| --- | --- | --- | --- | --- | --- | --- | --- | --- | --- | --- | --- | --- | --- | --- | --- | --- | --- |
| Cc1ccccc1.[Cl][Ru]([Cl])[PH]12CN3CN(CN(C3)C1)C2 [Compound 4] | −1.5 | 384 ± 16 | 83 ± 4 | 474 ± 19 | 68 ± 7 | 1.7 | 723 ± 29 | 1.0 | 79 ± 4 |  |  |  |  |  |  |  |  |
| Cc1ccc(C(C)C)cc1.[Cl][Ru]([Cl])[PH]12CN3CN(CN(C3)C1)C2 [Compound 5] | > −1.8 | 497 ± 12 | 71 ± 4 | 526 ± 19 | 57 ± 5 | 1.2 | 612 ± 30 | 1.3 | 84 ± 4 |  |  |  |  |  |  |  |  |
| Cc1cccc[c]1[Ru+]([Cl])([PH]12CN3CN(CN(C3)C1)C2)[PH](c1ccccc1)(c1ccccc1)c1ccccc1.F[P-](F)(F)(F)(F)F (centres unmarked) [Compound 10] |  | 113 ± 14 | 2.8 ± 0.2 | 128 ± 30 | 3.1 ± 0.2 | 0.6 | 74 ± 5 | 10.5 | 31 ± 3 | 41 | 547 ± 117 µM | 475 ± 102 µg/mL |  |  |  |  |  |
| Cc1cccc[c]1[Ru+]([Cl])([PH](c1ccccc1)(c1ccccc1)c1ccccc1)[PH](c1ccccc1)(c1ccccc1)c1ccccc1.c1ccc([B-](c2ccccc2)(c2ccccc2)c2ccccc2)cc1 [Compound 11BPh4] |  | 100 ± 8 | 1.7 ± 0.3 | 51 ± 5 | 0.52 ± 0.06 | 0.8 | 59 ± 5 | 3.5 | 3.9 ± 0.3 | 33 | below LOD | below LOD | > 3.5 | 71 | No changes were observed |  |  |
| Cc1cccc[c]1[Ru+]([Cl])([PH](c1ccccc1)(c1ccccc1)c1ccccc1)[PH](c1ccccc1)(c1ccccc1)c1ccccc1.O=[N+]([O-])[O-] [Compound 11NO3] |  | 4.6 ± 0.3 | 0.109 ± 0.009 | 5.9 ± 0.5 | 0.078 ± 0.005 | 0.7 | 3.7 ± 0.4 | 11.1 | 1.04 ± 0.05 |  | 268 ± 42 µM | 218 ± 34 µg/mL | 1.57 ± 0.29 | 141 |  |  |  |
| Cc1cccc[c]1[Ru+]([Cl])([PH](c1ccccc1)(c1ccccc1)c1ccccc1)[PH](c1ccccc1)(c1ccccc1)c1ccccc1.O=S(=O)([O-])C(F)(F)F [Compound 11OTf] |  | 4 ± 2 | 1.4 ± 0.1 | 4 ± 1 | 0.6 ± 0.07 | 1.5 | 5.8 ± 0.7 | 1.8 | 1.8 ± 0.2 | 40 | 1.1 ± 0.1 µM | 1.0 ± 0.1 µg/mL | 1.75 ± 0.18 | 173 |  |  |  |
| Cc1cccc[c]1[Ru+]([Cl])([PH](c1ccccc1)(c1ccccc1)c1ccccc1)[PH](c1ccccc1)(c1ccccc1)c1ccccc1.F[P-](F)(F)(F)(F)F [Compound 11PF6] |  | 5 ± 0.1 | 0.16 ± 0.01 | 3 ± 0.3 | 0.15 ± 0.01 | 2.5 | 10 ± 1 | 1.1 | 0.17 ± 0.01 |  | 0.6 ± 0.2 µM | 0.6 ± 0.2 µg/mL | 1.91 ± 0.23 | 150 |  |  |  |
| Cc1cccc[c]1[Ru+]([Cl])([PH](c1ccccc1)(c1ccccc1)c1ccccc1)[PH](c1ccccc1)(c1ccccc1)c1ccccc1.[F][Sb-]([F])([F])([F])([F])[F] [Compound 11SbF6] |  | 21 ± 2 | 0.131 ± 0.009 | 11 ± 2 | 0.08 ± 0.01 | 0.4 | 7 ± 0.4 | 12.8 | 1.35 ± 0.09 | 95 | below LOD | below LOD | 2.01 ± 0.07 | 186 |  |  |  |
| N.N.O=C([O-])C1(C(=O)[O-])CCC1.[Pt+2] [carboplatin] |  |  |  |  |  |  |  |  |  |  |  |  |  |  |  | 15.4 ± 3.3 | 27.3 |
